# Peptide text beside a SMILES is read from it. * marks the point of attachment. Cbz = O=C(OCc1ccccc1)*; CH2F = FC*
# Experiments:
# CT26 cells [1] = experiment: Fluorescence detection of cell surface CRT; format: cell-based, murine
# Description: CT26 cells were cultured at 37° C. under 5% CO2 in RPMI 1640 medium supplemented with 10% FCS, penicillin, streptomycin, 1 mM pyruvate and 10 mM HEPES in the presence of doxorubicin (DX; 24 h, 25 μM), mitoxantrone (Mitox; 24 h, 1 μM, Sigma), idarubicin (24 h, 1 μM, Aventis, France), mitomycin C (30 μM, 48 h; Sanofi-Synthelabo, France), and/or zVAD-fmk (50 μM, 24 h; Bachem), tunicamycin (24 h, 65 μM), thapsigargin (24 h, 30 μM), brefeldin A (24 h, 50 μM, Sigma), etoposide (48 h, 25 μM, Tava classics), MG132 (48 h, 10 μM), ALLN (48 h, […]), betulinic acid (24 h, 10 μM), Hoechst 33343 (24 h, 0.2 μM), camptothecine (24 h, 15 μM), lactacystin (48 h, 60 μM), BAY 11-8072 (24 h, 30 μM), staurosporine (24 h, 1.5 μM), bafilomycin A1 (48 h, 300 nM), arsenic trioxide (24 h, 30 μM), C2-ceramide (C2-C; 24 h, 60 μM), calyculin A (48 h, 30 nM), or tautomycin (48 h, […], Sigma) and/or salubrinal (48 h, […], Calbiochem).
# CT26 cells (on a glass slide or in 12-well plates) were first washed with FACS buffer (1×PBS, 5% fetus bovine serum, and 0.1% sodium azide) and then incubated with rabbit anti-mouse CRT antibody (1:100, Stressgen) in FACS buffer at 4° C. for 30 min. Cells reacted with anti-rabbit IgG (H+L) Alexa fluor 488-conjugates (1:500) in FACS buffer at 4° C. for 30 min. After washing three times with FACS buffer, surface CRT was detected by cytofluorometric analysis on a FACS Vantage. In some experiments, cells were fixed with 4% paraformaldehyde, counterstained with Hoechst (2 μM; Sigma), followed by fluorescence microscopic assessment with a Leica IRE2 microscope equipped with a DC300F camera.
# CT26 tumour cells = experiment: Anti-tumour vaccination with treated (dying) CT26 cells and challenge with live tumour cells; format: in vivo, BALB/c mice; details: for immunogenic apoptosis / immunogenic cell death (protection against tumour growth): dying CT26 cells injected into one flank, rechallenge with live tumour cells in opposite flank 8 days later
# HeLa cells = experiment: Surface ERp57 detection (immunofluorescence, flow cytometry); format: cell-based, human; details: MTX 1 μM, 2 h
# Description: HeLa cells were cultured on cover slips (in RPM1160 medium supplemented with 10% fetal calf serum, L-glutamine and antibiotics), in the absence (control) or in the presence of 1 μM mitoxantrone (MTX, Sigma) for 2 h. For the intracellular stainings, HeLa cells were fixed and permeabilised by means of Cytofix/Cytoperm kit from Becton Dickinson according to the manufacturer's instructions. For the surface stainings, HeLa cells were fixed with paraformadehyde (4% w/v) on ice for 5 min. […] Nuclei were labelled with DAPI mounting medium (Vectashield). Fluorescence microscopy was analyzed with a Leica IRE2 equipped with a DC300F camera. Size bars represent 10 μm.
# HeLa cells were treated with or without mitoxantrone (MTX, 1 μM) or tautomycin (Tau, 150 nM, Sigma) for 2 h. Cells were washed twice with PBS and fixed in PFA (4% w/v) for 5 min. HeLa cells were stained with an antibody against Erp57 (pAb from Abcam, ab10827) at 1:200 dilution or isotype control, in staining buffer (PBS, 1% FCS) for 30 min on ice, followed by washing. An anti-rabbit Alexa fluor 488 immunoglobulin conjugate (Molecular Probes-Invitrogen) diluted at 1:500 was added for an additional 30 min on ice before washing and analysed by flow cytometry (FACScan, Becton Dickinson). […] The CellQuest software was used to analyse the mean fluorescence intensity (MFI) and the percentage of ERp57 positive cells.
# FIG. 12: ERp57 exposure depends on the activation of a caspase. • (A) HeLa cells were treated with MTX (1 μM) for 2 h in the presence or absence of 50 μM zVAD.fmk. The MFI of surface Erp57 positive cells was analysed as described in FIG. 9. • (B) HCT116 parental cells stably transfected with either a vector encoding p35 (Stennicke et al., 2002; Date et al., 2003) or with a PCMV vector (Sigma) as control, were treated with MTX (1 μM) for 2 h. The MFI of surface Erp57 positive cells was analysed as described in FIG. 9. • (C) HCT116 cells were pre-incubated in the presence of 50 μM biotinylated VAD.fmk (Calbiochem) for 2 h. […]
# CT26 cells [2] = experiment: Phagocytosis of tumour cells by dendritic cells (DC); format: cell-based, BALB/c mice
# Description: BM cells were flushed from the tibias and femurs of BALB/c mice with culture medium composed of RPMI 1640 medium (Invitrogen Life Technologies) supplemented with 10% heat-inactivated FBS (Invitrogen), sodium pyruvate, 50 μM 2-ME (Sigma), 10 mM HEPES (pH 7.4), and penicillin/streptomycin (Invitrogen). After one centrifugation, BM cells were resuspended in Tris-ammonium chloride for 2 min to lyse RBC. After one more centrifugation, BM cells (1×10^6 cells/ml) were cultured in medium supplemented with 100 ng/ml recombinant mouse FLT3 ligand (R&D systems) in 6-well plates (Costar Corning). After 7 days, the non-adherent and loosely adherent cells were harvested with Versene, washed and transferred in 12-well plates (1.5×10^6 cells/plate) for cocultures with tumour cells.
# In 12-well plates, […] adherent CT26 cells were labelled with Celltracker Green (Calbiochem) and then incubated with drugs. In some experiments viable CT26 were coated with 2 μg/10^6 cells of chicken anti-CRT antibody (ABR affinity bioreagents) or an isotype control for 30 min prior to washing and feeding to dendritic cells Cs. Alternatively CT26 cells were coated with 2 μg/10^6 cells of rCRT on ice for 30 min and washed twice prior to addition to dendritic cells. Cells were then harvested, washed three times with medium supplemented with FBS and cocultured with immature DC for 2 hours at a ratio of 1:1 and 1:5. At the end of the incubation, cells were harvested with versene, pooled with non-adherent cells present in the supernatant, washed and stained with CD11c-FITC antibody. Phagocytosis was assessed by FACS analysis of double positive cells. Phagocytic indexes refer to the ratio between values obtained at 4° C. and values obtained at 37° C. of co-incubation between DC and tumour cells.
# CT26 cells [3] = experiment: Biotinylation of cell surface proteins, 2D gel electrophoresis and mass spectrometry
# CT26 tumours [4] = experiment: Single intratumoural injection into established CT26 tumours, athymic mice; set-up: species or system nu/nu Balb/c mice; details: mouse, in vivo
# CT26 tumours [5] = experiment: Single intratumoural injection into established CT26 tumours, immunocompetent mice; format: in vivo, BALB/c mice
compound,measurement,setting,value
COC[C@@H]([C@H](O)[C@H](O)C(=O)NCC[C@H](C)c1nc(/C=C/C[C@@H]2O[C@]3(C[C@@H](O)[C@@H]2C)O[C@H]([C@H](C[C@H](O)[C@H](C)[C@H](O)[C@H](C)/C=C(C)/C(C)=C/C=C/C(C)=C\C#N)OC)[C@H](OP(=O)(O)O)C3(C)C)co1)N(C)C [calyculin A],CRT exposure at the cell surface,CT26 cells [1],efficiently induced
same,immunogenic cell death by PP1/GADD34 inhibition alone,"CT26 tumour cells; mouse, in vivo",not sufficient to induce immunogenic cell death
C/C1=C/C(=O)O[C@@H]2C[C@@H](CC[C@H](C)/C=C\C=C\CC1)O[C@@](O)([C@@H]1CSC(=O)N1)C2 [latrunculin A],effect on CRT exposure induced by anthracyclins and PP1/GADD34 inhibitors,CT26 cells [1]; pre-incubation for 1 h with the inhibitor,abolished
CC[C@@]1(O)C(=O)OCc2c1cc1n(c2=O)Cc2cc3ccccc3nc2-1 [camptothecin],immunogenic apoptosis / immunogenic cell death (protection against tumour growth),CT26 tumour cells,failed to induce immunogenic apoptosis
tunicamycin,immunogenic apoptosis / immunogenic cell death (protection against tumour growth),CT26 tumour cells,failed to induce immunogenic apoptosis
COC(=O)C[C@H](NC(=O)[C@H](C)NC(=O)[C@@H](NC(=O)OCc1ccccc1)C(C)C)C(=O)CF [Z-VAD-fmk] (Cbz-Val-Ala-Asp(OMe)-CH2F),effect on immunogenicity of doxorubicin-elicited cell death,CT26 tumour cells; doxorubicin plus Z-VAD-fmk,reduces the immunogenicity
same,effect on ERp57 exposure induced by MTX,HeLa cells,abolished
CCOc1ccc(-c2nc3ccc(-c4nc5ccc(N6CCN(C)CC6)cc5[nH]4)cc3[nH]2)cc1 [Hoechst 33342],immunogenic apoptosis / immunogenic cell death (protection against tumour growth),CT26 tumour cells,failed to induce immunogenic apoptosis
COc1cccc2c1C(=O)c1c(O)c3c(c(O)c1C2=O)C[C@@](O)(C(=O)CO)C[C@@H]3O[C@H]1C[C@H](N)[C@H](O)[C@H](C)O1 [doxorubicin],phagocytosis of treated tumour cells by DC,CT26 cells [2]; within a few hours after treatment,acquired the property to be phagocytosed by DC
same,immunogenic apoptosis / immunogenic cell death (protection against tumour growth),CT26 tumour cells,elicited immunogenic cell death
same,"induction of surface CRT (factor), combined with Z-VAD-fmk","CT26 cells [3]; 4 h, doxorubicin plus Z-VAD-fmk",1.8
same,ERP57 surface exposure,"CT26 cells [3]; 4 h treatment, 2D electrophoreses",specifically induced
same,induction of surface CRT (factor),"CT26 cells [3]; short-term (4 h) treatment, biotinylated surface proteins, 2D electrophoreses",6
"CCCCCCCCCCCCC/C=C/[C@@H](O)[C@H](CO)NC(C)=O [C2 ceramide, C2-ceramide]",immunogenic apoptosis / immunogenic cell death (protection against tumour growth),CT26 tumour cells,failed to induce immunogenic apoptosis
"C[C@H]1CCC/C=C/[C@@H]2C[C@H](O)C[C@H]2[C@H](O)/C=C/C(=O)O1 [brefeldin, brefeldin A]",immunogenic apoptosis / immunogenic cell death (protection against tumour growth),CT26 tumour cells,failed to induce immunogenic apoptosis
CC(=O)[C@]1(O)Cc2c(O)c3c(c(O)c2[C@@H](O[C@H]2C[C@H](N)[C@H](O)[C@H](C)O2)C1)C(=O)c1ccccc1C3=O [idarubicin],immunogenic apoptosis / immunogenic cell death (protection against tumour growth),CT26 tumour cells,elicited immunogenic cell death
CCCCCCCCCCCCC/C=C/[C@@H](O)[C@H](CO)NC(=O)CCCCCCCCCCCCCCC [C16-ceramide],ecto-CRT after C16-ceramide,"CT26 cells [1]; 30 μM, 2 h",rapidly induces ecto-CRT
CO[C@@]12[C@H](COC(N)=O)C3=C(C(=O)C(C)=C(N)C3=O)N1C[C@@H]1N[C@@H]12 [mitomycin C],CRT exposure at the cell surface,CT26 cells [1],fail to induce ecto-CRT
same,"therapeutic effect of intratumoural injection, single agent, nu/nu mice",CT26 tumours [4],no major therapeutic effect
same,"therapeutic effect of intratumoural injection, single agent, immunocompetent mice","CT26 tumours [5]; mouse, in vivo",no major therapeutic effect
COc1cc([C@@H]2c3cc4c(cc3[C@@H](O[C@@H]3O[C@@H]5CO[C@@H](C)O[C@H]5[C@H](O)[C@H]3O)[C@H]3COC(=O)[C@H]23)OCO4)cc(OC)c1O [etoposide],CRT exposure at the cell surface,CT26 cells [1],fail to induce ecto-CRT
same,"therapeutic effect of intratumoural injection, single agent, nu/nu mice",CT26 tumours [4],no major therapeutic effect
same,"therapeutic effect of intratumoural injection, single agent, immunocompetent mice","CT26 tumours [5]; mouse, in vivo",no major therapeutic effect
same,immunogenic apoptosis / immunogenic cell death (protection against tumour growth),CT26 tumour cells,failed to induce immunogenic apoptosis
same,immunogenicity of sham-coated cells treated with etoposide,"CT26 tumour cells; mouse, in vivo",poorly immunogenic
5′-rCrCrGrCUrGrGrGUrCrGrArAUrCrRrArATT-3′ [specific siRNA],phagocytosis by DC of anthracyclin/mitoxantrone-treated tumour cells after blockade or knockdown of CRT,CT26 cells [2],suppressed the phagocytosis
CO[C@H]([C@H](O)CC(=O)[C@@H](C)[C@@H](O)CC[C@@H](C)[C@@H]1O[C@]2(CC[C@@H](C)[C@H](CC[C@H](C)C(C)=O)O2)CC[C@@H]1C)[C@H](OC(=O)C[C@@H](O)C1=C(C)C(=O)OC1=O)C(C)C [tautomycin],CRT exposure at the cell surface,CT26 cells [1],efficiently induced
same,"therapeutic effect of intratumoural injection, single agent, nu/nu mice",CT26 tumours [4],no major therapeutic effect
same,"therapeutic effect of intratumoural injection, single agent, immunocompetent mice",CT26 tumours [5]; established 14-day-old CT26 tumours,no major therapeutic effect
same,"therapeutic effect combined with a cell death inducer (etoposide or mitomycin C), immunocompetent mice",CT26 tumours [5]; intratumoural,stable disease or complete tumour regression
same,immunogenic cell death by PP1/GADD34 inhibition alone,"CT26 tumour cells; mouse, in vivo",not sufficient to induce immunogenic cell death
same,surface exposure of ERp57,HeLa cells; Tau 150 nM,stimulates the surface exposure
C/C=C(/C)C(=O)O[C@H]1C(C)=C2[C@H]([C@@H]1OC(=O)CCCCCCC)[C@@](C)(OC(C)=O)C[C@H](OC(=O)CCC)[C@@]1(O)[C@H]2OC(=O)[C@@]1(C)O [thapsigargin],immunogenic apoptosis / immunogenic cell death (protection against tumour growth),CT26 tumour cells,failed to induce immunogenic apoptosis
